Experimental findings from patent US6153589A, “2,3-epoxy alcohols, acids and derivatives as anti retroviral chemotherapeutic agents” (The United States of America as represented by the …, priority 1992, dated 2000) are described below.

One assay relates to HIV1 IIIb. Description: microbe, parasite or virus in culture. Format: cell-based. Conditions: Human immunodeficiency virus 1, IIIB; for viability at 0.1 µg/mL: 0.1 ug/ml; for viability at 1 µg/mL: 1 ug/ml; for viability at 10 µg/mL: 10 ug/ml; for viability at 56.7 µg/mL: 56.7 ug/ml; for viability at 48.4 µg/mL: 48.4 ug/ml; for viability at 2.4 µg/mL: 2.4 ug/ml. From the text: In-vitro Screening Anti--HIV XTT Assay
This assay, which is available to the public by the National Cancer Institute, utilizes colorimetry based on the production of a colored formazin from a tetrazolium salt by viable cells, to develop a safe, rapid and quantitative measure of HIV cytopathology. The assay is a modification of the previously described screening method for the detection of anti-tumor drug cytotoxicity (D. A. Scudiero, et al, Cancer Res, 48, 4827-4833 (1988)). It involves the plating of susceptible human "host" cells with and without virus in microculture plates, adding various concentrations of the respective test compounds, incubating the plates for seven days, during which time infected, non-drug treated control cells are largely or totally destroyed by the virus. The number of remaining viable cells are determined utilizing a calorimetric endpoint. A beneficial antiviral effect is indicated by a response % grater than the virus kill %, with 100% being optimal.
Anti-viral effect: Response (Viable Cells, determined by colorometric
absorbance of formazan dye produced) as % of uninfected controls
Virus Source: HIV1 IIIb; C, Virus producing H9 cells; V, cell free virus
Virus Kill: Infected untreated cells as % of uninfected cell controls
*: Culture redosed with compound after 3 days

The next assay relates to HIV-2 protease. The assay is described as follows: HIV protease cleavage of nonapeptide (HPLC). Format: biochemical. The conditions noted are these: 0.5 μl of 10 μg/μl inhibitor in DMSO per 10 μl reaction; pH 6.5, room temperature; pentapeptide product relative to DMSO control; sampled at ca. 16 and 40 hr (time not given). Here is the method: Activity Against HIV Protease
The assay for proteolyic activity is a modified version of that previously described by Copeland et al., Gene Anal. Tech., 5:109-115 (1988). For each assay to be performed 2 microliters of protease solution (ca. 100 ng) is added to 3 μg of nonapeptide (Val-Ser-Gln-Asn-Tyr-Pro-Ile-Val-Gln-NH2) in 8 μl of 200 mM sodium phosphate, 1 M NaCl, 5% glycerol, 0.25% Nonidet-40, at pH 6.5. This affords a stock solution containing 10 μl per number of reactions. This stock is aliquoted out in 10 μl portions to which 0.5 μl of DMSO (a control is run with each set of assays to compensate for minor experimental variations) or a DMSO solution containing 10 μg/μl of an inhibitor, i.e., any one of the compounds of the present invention, is added. The reactions were incubated at room temperature and 4 μl portions were removed at ca. 16 and 40 hr. intervals. HPLC analysis was performed on a 4.6×250 mm Lichrosorb RP-18 column eluted with a gradient of 0-40% acetonitrile in water (containing 0.05% TFA) over 30 min monitoring absorbance at 206 nm. Progress of the enzymatic cleavage was followed by monitoring the appearance of the pentapeptide (Val-Ser-Gln-Asn-Tyr-OH) cleavage product. The activity is expressed as the amount of the pentapeptide (Val-Ser-Gln-Asn-Tyr-OH) observed relative to the control reaction for that set of assays.
Inhibition of HIV-2 protease

[1] abbreviates: 168 h, read-out: Antiviral Effect (viable cells as % of uninfected controls), run 6, source V (cell free virus), virus kill 26.0%.

Like-named read-outs stand apart in the source and are kept apart here.

For `OC[C@@H]1O[C@@H]1COCc1ccccc1` [Example 13, (2S-cis)-3-(Benzyloxymethyl)oxirane Methanol], the viability at 0.1 µg/mL came out at 50% in the assay with HIV1 IIIb (168 h, read-out: Antiviral Effect (viable cells as % of uninfected controls), run 4, source V (cell free virus), virus kill 55.0%); 52.5% in the assay on HIV1 IIIb (168 h, read-out: Antiviral Effect (viable cells as % of uninfected controls), run 5, source V (cell free virus), virus kill 27.0%); 22.1% with HIV1 IIIb (H9, 168 h, read-out: Antiviral Effect (viable cells as % of uninfected controls), run 1, source C (virus producing H9 cells), virus kill 21.0%). The viability at 4.4 µg/mL in the assay with HIV1 IIIb (168 h, read-out: Antiviral Effect (viable cells as % of uninfected controls), run 6, 4.4 ug/ml, source V (cell free virus), virus kill 24.0%) was 28.4%. The viability at 0.44 µg/mL in the assay with HIV1 IIIb (168 h, read-out: Antiviral Effect (viable cells as % of uninfected controls), run 7*, 0.44 ug/ml, source V (cell free virus), virus kill 27.0%, culture redosed with compound after 3 days) was found to be 30.1%. Further, the viability at 1 µg/mL in the assay on HIV1 IIIb (H9, 168 h, read-out: Antiviral Effect (viable cells as % of uninfected controls), run 2, source C (virus producing H9 cells), virus kill 13.0%) was determined as 15.7%; in the assay on HIV1 IIIb (H9, 168 h, read-out: Antiviral Effect (viable cells as % of uninfected controls), run 3, source C (virus producing H9 cells), virus kill 11.0%) it was 10.2%. Moreover, the “Percent Control Cleavage of Nonapeptide HIV-1 Cleavage Site Fragment” value (from here on “Percent Control Cleavage”) in the assay on HIV-2 protease amounted to 81%.
Turning to `OC[C@H]1O[C@H]1COCc1ccccc1` [Example 14, (2R-cis)-3-(Benzyloxymethyl)oxirane Methanol], the viability at 1 µg/mL with HIV1 IIIb (168 h, read-out: Antiviral Effect (viable cells as % of uninfected controls), run 6, source V (cell free virus), virus kill 50.0%) worked out at 43.5%. Besides, the viability at 10 µg/mL came to 49.5% in the assay with HIV1 IIIb (168 h, read-out: Antiviral Effect (viable cells as % of uninfected controls), run 7, source V (cell free virus), virus kill 50.0%); 53.5% in the assay on HIV1 IIIb (H9, 168 h, read-out: Antiviral Effect (viable cells as % of uninfected controls), run 2, source C (virus producing H9 cells), virus kill 17.0%); 61% in the assay on HIV1 IIIb (H9, 168 h, read-out: Antiviral Effect (viable cells as % of uninfected controls), run 3, source C (virus producing H9 cells), virus kill 17.0%); 10.5% with HIV1 IIIb (H9, 168 h, read-out: Antiviral Effect (viable cells as % of uninfected controls), run 5, source C (virus producing H9 cells), virus kill 10.0%). Further, the viability at 0.1 µg/mL in the assay on HIV1 IIIb (168 h, read-out: Antiviral Effect (viable cells as % of uninfected controls), run 8, source V (cell free virus), virus kill 16.0%) stood at 17.7%; in the assay on HIV1 IIIb (168 h, read-out: Antiviral Effect (viable cells as % of uninfected controls), run 9, source V (cell free virus), virus kill 16.0%), 20.6%; in the assay with HIV1 IIIb (H9, 168 h, read-out: Antiviral Effect (viable cells as % of uninfected controls), run 1, source C (virus producing H9 cells), virus kill 18.0%), 21.9%; in the assay on HIV1 IIIb (H9, 168 h, read-out: Antiviral Effect (viable cells as % of uninfected controls), run 4, source C (virus producing H9 cells), virus kill 10.0%), 12.1%. The viability at 4.1 µg/mL with HIV1 IIIb (168 h, read-out: Antiviral Effect (viable cells as % of uninfected controls), run 10, 4.1 ug/ml, source V (cell free virus), virus kill 29.0%) amounted to 28.8%. Also, the viability at 0.004 µg/mL with HIV1 IIIb (168 h, read-out: Antiviral Effect (viable cells as % of uninfected controls), run 11*, 0.004 ug/ml, source V (cell free virus), virus kill 25.0%, culture redosed with compound after 3 days) was 30%. Further, the “Percent Control Cleavage” value with HIV-2 protease amounted to 78%.
With `CCCCCCCOC[C@H]1O[C@H]1CO` [Example 17], the viability at 11.3 µg/mL in the assay on HIV1 IIIb (168 h, read-out: Antiviral Effect (viable cells as % of uninfected controls), run 4, 11.3 ug/ml, source V (cell free virus), virus kill 40.0%) was found to be 57.6%. The viability at 56.7 µg/mL in the assay with HIV1 IIIb (168 h, read-out: Antiviral Effect (viable cells as % of uninfected controls), run 5, source V (cell free virus), virus kill 57.0%) worked out at 102%; with HIV1 IIIb (setting [1]) it was 69.2%; in the assay with HIV1 IIIb (H9, 168 h, read-out: Antiviral Effect (viable cells as % of uninfected controls), run 2, source C (virus producing H9 cells), virus kill 15.0%) it was 53.7%; with HIV1 IIIb (H9, 168 h, read-out: Antiviral Effect (viable cells as % of uninfected controls), run 3, source C (virus producing H9 cells), virus kill 15.0%), 83.1%. The viability at 1.97 µg/mL in the assay on HIV1 IIIb (168 h, read-out: Antiviral Effect (viable cells as % of uninfected controls), run 7*, 1.97 ug/ml, source V (cell free virus), virus kill 28.0%, culture redosed with compound after 3 days) was determined as 15.8%. Also, the viability at 113 µg/mL in the assay with HIV1 IIIb (H9, 168 h, read-out: Antiviral Effect (viable cells as % of uninfected controls), run 1, 113 ug/ml, source C (virus producing H9 cells), virus kill 10.0%) is 31.1%. The “Percent Control Cleavage” value in the assay on HIV-2 protease is reported as 66%.
For `CCCCCCCOC[C@@H]1O[C@@H]1CO` [Example 18, (2R-cis)-3-(Heptyloxymethyl)oxirane Methanol], the viability at 9.65 µg/mL in the assay with HIV1 IIIb (168 h, read-out: Antiviral Effect (viable cells as % of uninfected controls), run 4, 9.65 ug/ml, source V (cell free virus), virus kill 40.0%) came out at 58.8%. The viability at 48.4 µg/mL in the assay on HIV1 IIIb (168 h, read-out: Antiviral Effect (viable cells as % of uninfected controls), run 5, source V (cell free virus), virus kill 63.0%) came out at 89.8%; with HIV1 IIIb (setting [1]) it was 49%; in the assay with HIV1 IIIb (H9, 168 h, read-out: Antiviral Effect (viable cells as % of uninfected controls), run 2, source C (virus producing H9 cells), virus kill 16.0%), 30.7%. The viability at 2.4 µg/mL came out at 29.4% in the assay with HIV1 IIIb (168 h, read-out: Antiviral Effect (viable cells as % of uninfected controls), run 7, source V (cell free virus), virus kill 20.0%) and 40.2% in the assay on HIV1 IIIb (168 h, read-out: Antiviral Effect (viable cells as % of uninfected controls), run 8*, source V (cell free virus), virus kill 25.0%, culture redosed with compound after 3 days). Also, the viability at 96.5 µg/mL in the assay on HIV1 IIIb (H9, 168 h, read-out: Antiviral Effect (viable cells as % of uninfected controls), run 1, 96.5 ug/ml, source C (virus producing H9 cells), virus kill 11.0%) was 38.6%. Also, in the assay on HIV1 IIIb (H9, 168 h, read-out: Antiviral Effect (viable cells as % of uninfected controls), run 3, 4.84 ug/ml, source C (virus producing H9 cells), virus kill 10.0%), the viability at 4.84 µg/mL was 17%. Further, the “Percent Control Cleavage” value in the assay with HIV-2 protease was 71%.
